Measured values: PubChem BioAssay (NCI)
Where “and” joins values, the source holds several entries; their conditions need not be identical. Equal values may be shown once.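 Five compound concentrations were applied to cells in 96-well plates for 48 hours; endpoints were derived by simple linear interpolation of the resulting dose-response curve. GI50 = concentration required for 50% inhibition of growth. TGI: total growth inhibition.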

Experiments:
Experiment in all cases: NCI tumour cell line growth inhibition, 48 h
[1] = system: SN12C renal
[2] = system: CCRF-CEM leukemia
[3] = system: SK-OV-3 ovarian
[4] = system: M14 melanoma
[5] = system: SW-620 colon
[6] = system: SNB-19 CNS
[7] = system: NCI-H226 lung
[8] = system: HCT-116 colon
[9] = system: HL-60(TB) leukemia
[10] = system: HOP-92 NSCLC
[11] = system: PC-3 prostate
[12] = system: UACC-62 melanoma
[13] = system: SNB-75 CNS
[14] = system: IGROV1 ovarian
[15] = system: SF-539 CNS
[16] = system: HS 578T breast
[17] = system: HT29 colon
[18] = system: TK-10 renal
[19] = system: NCI-H460 lung
[20] = system: U251 CNS
[21] = system: NCI-H522 lung
[22] = system: SF-268 CNS
[23] = system: T-47D breast
[24] = system: A549 NSCLC
[25] = system: A498 renal
[26] = system: SK-MEL-5 melanoma
[27] = system: MOLT-4 leukemia
[28] = system: MALME-3M melanoma
[29] = system: SK-MEL-28 melanoma
[30] = system: RXF 393 renal
[31] = system: KM12 colon
[32] = system: HCC-2998 colon
[33] = system: BT-549 breast
[34] = system: NCI-H23 lung
[35] = system: DU-145 prostate
[36] = system: SK-MEL-2 melanoma
[37] = system: RPMI-8226 leukemia
[38] = system: OVCAR-3 ovarian
[39] = system: OVCAR-5 ovarian
[40] = system: MCF7 breast
[41] = system: HOP-62 NSCLC
[42] = system: EKVX NSCLC
[43] = system: HCT-15 colon
[44] = system: UO-31 renal
[45] = system: K-562 leukemia
[46] = system: ACHN renal
[47] = system: MDA-MB-435
[48] = system: OVCAR-8 ovarian
[49] = system: UACC-257 melanoma
[50] = system: SF-295 CNS
[51] = system: COLO 205 colon
[52] = system: CAKI-1 renal
[53] = system: NCI/ADR-RES ovarian
[54] = system: MDA-MB-231 breast
[55] = system: OVCAR-4 ovarian
[56] = system: 786-0 renal
[57] = system: LOX IMVI melanoma

O=S(=O)(c1ccc2c(c1)C(=NO)c1cc(S(=O)(=O)N3CCCCC3)ccc1-2)N1CCCCC1
GI50 [1]: 208 nM and 144 nM | TGI [1]: 438 nM and 280 nM | GI50 [2]: 72.7 nM | TGI [2]: 338 nM | GI50 [3]: 187 nM and 162 nM | TGI [3]: 362 nM and 311 nM | GI50 [4]: 182 nM and 187 nM | TGI [4]: 330 nM and 349 nM | GI50 [5]: 197 nM and 74.3 nM | TGI [5]: 437 nM and 174 nM | GI50 [6]: 303 nM and 184 nM | TGI [6]: 962 nM and 326 nM | GI50 [7]: 292 nM and 106 nM | TGI [7]: 936 nM and 298 nM | GI50 [8]: 200 nM and 153 nM | TGI [8]: 434 nM and 333 nM | GI50 [9]: 107 nM and 189 nM | TGI [9]: 326 nM and 549 nM | GI50 [10]: > 1000 nM and 220 nM | TGI [10]: > 1000 nM and 524 nM | GI50 [11]: 263 nM and 171 nM | TGI [11]: 812 nM and 381 nM | GI50 [12]: 227 nM and 174 nM | TGI [12]: 612 nM and 329 nM | GI50 [13]: 147 nM and 58.7 nM | TGI [13]: 287 nM and 151 nM | GI50 [14]: 131 nM and 73.2 nM | TGI [14]: 494 nM and 213 nM | GI50 [15]: 227 nM and 170 nM | TGI [15]: 569 nM and 312 nM | GI50 [16]: 240 nM and 198 nM | TGI [16]: 772 nM and 480 nM | GI50 [17]: 856 nM and 194 nM | TGI [17]: > 1000 nM and 400 nM | GI50 [18]: 669 nM and 177 nM | TGI [18]: > 1000 nM and 319 nM | GI50 [19]: 214 nM and 106 nM | TGI [19]: 465 nM and 268 nM | GI50 [20]: > 1000 nM and 178 nM | TGI [20]: > 1000 nM and 344 nM | GI50 [21]: > 1000 nM and 107 nM | TGI [21]: > 1000 nM and 252 nM | GI50 [22]: 215 nM and 120 nM | TGI [22]: 440 nM and 318 nM | GI50 [23]: 186 nM and 180 nM | TGI [23]: 423 nM and 384 nM | GI50 [24]: > 1000 nM and 187 nM | TGI [24]: > 1000 nM and 371 nM | GI50 [25]: > 1000 nM and 8880 nM | TGI [25]: > 1000 nM and 37500 nM | GI50 [26]: > 1000 nM and 174 nM | TGI [26]: > 1000 nM and 314 nM | GI50 [27]: 204 nM and 215 nM | TGI [27]: 433 nM and 832 nM | GI50 [28]: > 1000 nM and 174 nM | TGI [28]: > 1000 nM and 312 nM | GI50 [29]: 346 nM and 177 nM | TGI [29]: > 1000 nM and 326 nM | GI50 [30]: > 1000 nM and 204 nM | TGI [30]: > 1000 nM and 358 nM | GI50 [31]: 508 nM and 184 nM | TGI [31]: > 1000 nM and 356 nM | GI50 [32]: 298 nM and 134 nM | TGI [32]: > 1000 nM and 273 nM | GI50 [33]: 173 nM and 179 nM | TGI [33]: 332 nM and 326 nM | GI50 [34]: > 1000 nM and 162 nM | TGI [34]: > 1000 nM and 314 nM | GI50 [35]: 206 nM and 154 nM | TGI [35]: 397 nM and 296 nM | GI50 [36]: > 1000 nM and 176 nM | TGI [36]: > 1000 nM and 331 nM | GI50 [37]: 189 nM and 126 nM | TGI [37]: 424 nM and 452 nM | GI50 [38]: 870 nM and 177 nM | TGI [38]: > 1000 nM and 321 nM | GI50 [39]: 153 nM and 151 nM | TGI [39]: 315 nM and 293 nM | GI50 [40]: > 1000 nM and 178 nM | TGI [40]: > 1000 nM and 344 nM | GI50 [41]: 168 nM and 46.3 nM | TGI [41]: 360 nM and 105 nM | GI50 [42]: 575 nM and 174 nM | TGI [42]: > 1000 nM and 323 nM | GI50 [43]: 914 nM and 173 nM | TGI [43]: > 1000 nM and 323 nM | GI50 [44]: 160 nM and 46.7 nM | TGI [44]: 319 nM and 110 nM | GI50 [45]: 211 nM and 216 nM | TGI [45]: 452 nM and 785 nM | GI50 [46]: 188 nM and 163 nM | TGI [46]: 389 nM and 319 nM | GI50 [47]: 173 nM and 102 nM | TGI [47]: 317 nM and 244 nM | GI50 [48]: 306 nM and 90.4 nM | TGI [48]: 842 nM and 281 nM | GI50 [49]: 170 nM | TGI [49]: 320 nM | GI50 [50]: 188 nM and 141 nM | TGI [50]: 352 nM and 283 nM | GI50 [51]: > 1000 nM and 194 nM | TGI [51]: > 1000 nM and 363 nM | GI50 [52]: 427 nM and 147 nM | TGI [52]: > 1000 nM and 282 nM | GI50 [53]: > 1000 nM and 196 nM | TGI [53]: > 1000 nM and 404 nM | GI50 [54]: 179 nM and 56.2 nM | TGI [54]: 360 nM and 112 nM | GI50 [55]: 195 nM and 63.6 nM | TGI [55]: 426 nM and 143 nM | GI50 [56]: 212 nM and 186 nM | TGI [56]: 499 nM and 342 nM

Cc1cc(N2CCOCC2)nc(N(CCNc2ccnc3cc(Cl)ccc23)Cc2ccco2)n1
GI50 [1]: 6880 nM | TGI [1]: 26700 nM | GI50 [2]: 3180 nM | TGI [2]: > 100000 nM | GI50 [3]: 7010 nM | TGI [3]: 22000 nM | GI50 [4]: 2340 nM | TGI [4]: 6430 nM | GI50 [5]: 3390 nM | TGI [5]: 45200 nM | GI50 [6]: 6490 nM | TGI [6]: 48100 nM | GI50 [7]: 3780 nM | TGI [7]: 25500 nM | GI50 [10]: 2100 nM | TGI [10]: 8190 nM | GI50 [11]: 4380 nM | TGI [11]: 20600 nM | GI50 [12]: 3250 nM | TGI [12]: 10000 nM | GI50 [13]: 2590 nM | TGI [13]: 7770 nM | GI50 [14]: 3920 nM | TGI [14]: 23100 nM | GI50 [15]: 1950 nM | TGI [15]: 4410 nM | GI50 [16]: 2640 nM | TGI [16]: 10100 nM | GI50 [17]: 1920 nM | TGI [17]: 5530 nM | GI50 [18]: 2710 nM | TGI [18]: 9620 nM | GI50 [19]: 3720 nM | TGI [19]: 23900 nM | GI50 [20]: 3210 nM | TGI [20]: 12400 nM | GI50 [21]: 1840 nM | TGI [21]: 4750 nM | GI50 [22]: 11100 nM | TGI [22]: 46000 nM | GI50 [23]: 2130 nM | TGI [23]: 4920 nM | GI50 [24]: 6200 nM | TGI [24]: 39100 nM | GI50 [25]: 2470 nM | TGI [25]: 12600 nM | GI50 [26]: 3100 nM | TGI [26]: 12100 nM | GI50 [27]: 3410 nM | TGI [27]: > 100000 nM | GI50 [28]: 3410 nM | TGI [28]: 10300 nM | GI50 [29]: 2690 nM | TGI [29]: 7670 nM | GI50 [30]: 1640 nM | TGI [30]: 4290 nM | GI50 [31]: 4810 nM | TGI [31]: 53500 nM | GI50 [32]: 6120 nM | TGI [32]: 44800 nM | GI50 [33]: 2800 nM | TGI [33]: 8690 nM | GI50 [34]: 5580 nM | TGI [34]: 35400 nM | GI50 [35]: 6850 nM | TGI [35]: 26500 nM | GI50 [36]: 2140 nM | TGI [36]: 5180 nM | GI50 [39]: 9400 nM | TGI [39]: 44600 nM | GI50 [40]: 3150 nM | TGI [40]: 18900 nM | GI50 [41]: 3620 nM | TGI [41]: 31300 nM | GI50 [42]: 12700 nM | TGI [42]: 35400 nM | GI50 [43]: 3600 nM | TGI [43]: 34900 nM | GI50 [44]: 1990 nM | TGI [44]: 6970 nM | GI50 [57]: 2030 nM | TGI [57]: 4910 nM | GI50 [45]: 2910 nM | TGI [45]: > 100000 nM | GI50 [46]: 3460 nM | TGI [46]: 15300 nM | GI50 [47]: 3270 nM | TGI [47]: 15200 nM | GI50 [48]: 3840 nM | TGI [48]: > 100000 nM | GI50 [49]: 3410 nM | TGI [49]: 16500 nM | GI50 [50]: 1680 nM | TGI [50]: 3640 nM | GI50 [51]: 2340 nM | TGI [51]: > 100000 nM | GI50 [53]: 4500 nM | TGI [53]: 68800 nM | GI50 [54]: 3160 nM | TGI [54]: 13400 nM | GI50 [55]: 2400 nM | TGI [55]: 8120 nM | GI50 [56]: 2140 nM | TGI [56]: 4910 nM
